Active and inactive are the calls of the source.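 How the source made its calls: active means compounds whose IC50 against parasite growth in infected mouse cells is below 50000 nM; inactive means the rest.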
test system: T. cruzi Tulahuen in NIH-3T3, beta-gal fluorescence, 4 d; assay: T. cruzi intracellular growth inhibition, cell-based (AID 1159559)

Structure (SMILES) | IC50
COc1cc(C(C)C)c(S(C)(=O)=O)cc1C(=O)N1CCN(c2ccccc2Cl)CC1 | 1600 nM
COCc1cc(Nc2ccc(Cl)cc2)nc(-c2ccccn2)n1 | 1600 nM
CC(C)C[C@H](NC(=O)c1ccc(-c2ccccc2)o1)C(=O)NC1(C#N)CC1 | 32000 nM
CC(C)c1cc(Nc2cc(Cc3ccccc3)nc(NC3CCC(O)CC3)n2)n[nH]1 (stereo not drawn) | 79 nM
CCC(c1ccc(F)cc1)n1cncc1-c1cnn(C)c1 (stereo not drawn) | 200 nM
COc1ccnc2[nH]cc(-c3cc(C(=O)N[C@H](CO)c4ccccc4)co3)c12 | 1300 nM
O=S(=O)(c1ccccc1C(F)(F)F)N1CCN(Cc2ccc(-n3ccnc3)cc2)CC1 | 250 nM
COc1ncc(-c2ccc3ncnc(N4CCOCC4)c3c2)cc1NS(C)(=O)=O | 500 nM
CC(c1ccccn1)N(C)Cc1nc2ccccc2n1C(C)C (stereo not drawn) | 1600 nM
NS(=O)(=O)c1ccc(CNC(=O)c2ccc([N+](=O)[O-])s2)cc1 | 1000 nM
O=C(Nc1nc(-c2ccccn2)cs1)c1ccc(S(=O)(=O)N2CCCCC2)cc1 | 630 nM
NC(=O)c1cc(F)ccc1Nc1nc(NC2CCC(O)CC2)ncc1Br (stereo not drawn) | 2500 nM
COc1cccc(C(=O)[C@H]2C[C@@H]2CN(Cc2cccnc2)Cc2cccnc2)c1 | 100 nM
CCCn1c(NC(=O)CCn2cc(Br)cn2)nc2ccccc21 | 5000 nM
Cc1ncsc1CNc1cnc(-c2ccc3c(c2)OCCO3)c(-c2cnn(C)c2)c1 | 13000 nM
CN(C)Cc1cccc(Nc2nccc(-c3ccc(NCCN)c(C#N)c3)n2)c1 | 1000 nM
OC1CCC(Nc2nccc(-c3sc(C4CCOCC4)nc3-c3ccc(F)c(F)c3)n2)CC1 (stereo not drawn) | 320 nM
CC(C)Nc1nccc(-c2c(-c3ccc(F)cc3)ncn2C2CCOCC2)n1 | 250 nM
CS(=O)(=O)NC1CCC(Oc2cc3cnccc3cc2-c2ccsc2)CC1 (stereo not drawn) | 130 nM
O=C(CSc1nnc2ccc(-c3ccc(F)cc3)nn12)N1CCCCC1 | 2500 nM
CC1(Oc2cncc(Cl)c2)CCN(Cc2cc3ccccc3[nH]2)C1 (stereo not drawn) | 1000 nM
COc1cccc(-c2cc(C(F)(F)F)nc(-n3ccc([N+](=O)[O-])n3)n2)c1 | 400 nM

Structure (SMILES) | IC50
c1ccc2[nH]c(-c3ccc(N4CCCC4)nc3)nc2c1 | 1000 nM
Cc1occc1C(=O)Nc1ccccc1C(=O)Nc1nccs1 | > 50000 nM (inactive)
CC(C)(C)Nc1nc(Nc2ccc3c(c2)CS(=O)(=O)C3)nc2[nH]ccc12 | 1000 nM
O=C(NCc1nnc2n1CCCCC2)c1csc(-c2ccccc2)n1 | 2500 nM
Cc1[nH]nc2c1C(c1ccc(OCc3ccccc3F)cc1)SCC(=O)N2 (stereo not drawn) | 2000 nM
O=C1CN(C2CCCc3c(OCc4ccncc4)cccc32)C(=O)N1C1CCCCC1 (stereo not drawn) | 250 nM
COc1cc(F)c2ncc(F)c(CCN3CC[C@H](NCc4cc5c(cn4)OCS5)[C@@H](O)C3)c2c1 | 400 nM
O=C(CCCNC(=O)c1ccc(Cl)cc1)Nc1nc(-c2ccccn2)cs1 | 6300 nM
CCOc1ccc(NC(=O)c2ccc(NC(=O)NC3CCCCC3)cc2)cc1 | 32000 nM
O=C1CN(Cc2ccco2)C2CS(=O)(=O)CC2N1c1ccc(Cl)cc1 (stereo not drawn) | > 50000 nM (inactive)
CNC(=O)C1Cc2ccccc2N1C(=O)COc1cccc(OC)c1 (stereo not drawn) | > 50000 nM (inactive)
O=C(COc1ccccc1)Nc1ccccc1C(=O)Nc1nccs1 | > 50000 nM (inactive)
O=C(NCCc1nc(-c2ccc(F)c(F)c2)n[nH]1)C1CCCCC1 | 2000 nM
NCC(Cc1ccccc1)NC(=O)c1cnc(-c2c[nH]c3ncccc23)s1 (stereo not drawn) | 2000 nM
O=[N+]([O-])c1ccc(-c2nnn(-c3cccnc3)n2)o1 | 250 nM
O=C(Cn1cnc([N+](=O)[O-])n1)Nc1ccc(Cl)cc1C(=O)c1ccccc1 | 250 nM
CN1CCCN(C(=O)c2ccc(N3CCCC3)cc2Cl)CC1 | 790 nM
N#Cc1c(Oc2cccc(Cl)c2)cccc1[N+](=O)[O-] | 320 nM
O=C1COC(c2ccccc2)(c2ccccc2)CN1C1CCN(Cc2ccc(-n3ccnc3)cc2)CC1 | 1600 nM
Cc1ccc(C)c(OC2CCN(C(=O)C(C)n3ccnc3)CC2)c1 (stereo not drawn) | 160 nM
CC(C)n1c(-c2nonc2N)nc2cccc(OCCN3CCCC3)c21 | 10000 nM
Cc1nc(N2CC(C)OC(C)C2)sc1C(=O)Nc1ccc2c(c1)OCO2 (stereo not drawn) | 2000 nM

Structure (SMILES) | IC50
CC(C)c1sc(Cl)nc1C(=O)NCCc1nc(C(=O)Nc2ccc3c(c2)OCO3)cs1 | 4000 nM
O=c1ccc2ccc(F)c3c2n1C[C@H]3CN1CCC(NCc2cc3ccccc3o2)CC1 | 400 nM
Cc1ccc(NC(=O)c2ccc([N+](=O)[O-])s2)cc1S(=O)(=O)N1CCOCC1 | 200 nM
O=C(NCCc1ccccn1)C(c1cn[nH]c1)N1CCN(c2ccc(Cl)c(Cl)c2)CC1 (stereo not drawn) | 100 nM
CS(=O)(=O)NC1CCC(Nc2ncc(Br)c(Nc3ccccc3C(N)=O)n2)CC1 (stereo not drawn) | 7900 nM
Cc1cc(C)nc(N2CCC(N(Cc3cccnc3)C(=O)c3cccc(C#N)c3)CC2)n1 | 320 nM
Cc1ccccc1NS(=O)(=O)c1ccc2[nH]cc(C(=O)NC3CCCC3)c(=O)c2c1 | 25000 nM
Nc1nc(-c2ccccn2)nc(-n2nc(-c3ccccc3)cc2N)n1 | 500 nM
CCOC(=O)c1cn[nH]c1S(=O)(=O)N1CCC1c1ccccc1 (stereo not drawn) | > 50000 nM (inactive)
CC(C)(C)C(=O)Nc1cc(C2CC2)nn1-c1nc2c(c(=O)[nH]1)CCCC2 | 500 nM
CCCCNc1nccc(-c2c(-c3ccc(F)cc3)nn3c(N4CCOCC4)cccc23)n1 | 400 nM
C=CCn1nc([N+](=O)[O-])nc1Oc1ccc(Cl)cc1Cl | 250 nM
Cc1ccc(NC(=O)c2ccc(Cl)c(NC(=O)c3ccc([N+](=O)[O-])cc3)c2)cc1 | 630 nM
CN(C(=O)Nc1ccc2c(c1)CCN(C1CCC1)CC2)c1ccc(C#N)cc1 | 2000 nM
Cc1ccc2onc(Nc3ccnc(Nc4cccc(S(C)(=O)=O)c4)n3)c2c1 | 4000 nM
Cc1cc(Nc2cc(C3CC3)[nH]n2)nc(N2CCC[C@H]2C(N)=O)n1 | 130 nM
Cc1cc(-c2cccc3ccccc23)nc2nc(N)nc(N)c12 | 40000 nM
COc1ccc2ncc(=O)n(CCN3CCC(NCc4ccc(-c5cccs5)cc4)CC3)c2n1 | 2000 nM
O=c1[nH]c(C=Cc2cccc(OCCOc3ccccc3)c2)nc(O)c1[N+](=O)[O-] | 790 nM
CCOc1ccc(CC(=O)N2c3ccccc3CC2C(=O)NC)cc1 (stereo not drawn) | > 50000 nM (inactive)
CN(C)Cc1ccc(N2CCC(NS(=O)(=O)c3ccc(Cl)cc3)CC2)cc1 | 790 nM
COc1ccc(Cc2nc(-c3ncc4cccnc4c3O)n[nH]2)cc1OC | 1300 nM

Structure (SMILES) | IC50
Cc1ccc(S(=O)(=O)Cn2nnnc2C(c2cccnc2)N2CCN(c3ccccc3)CC2)cc1 (stereo not drawn) | 500 nM
COc1cccc(Nc2cc(C)nc(-c3ccccn3)n2)c1 | 3200 nM
Cc1nn(-c2nc(N)nc(-c3ccccn3)n2)c(N)c1-c1ccccc1 | 4000 nM
CCS(=O)(=O)c1cccc(C(=O)Nc2nc(-c3ccccn3)cs2)c1 | 1600 nM
O=C(Nc1ccc(C(=O)N2CCCC2c2ccc3c(c2)OCCCO3)cc1)c1ccco1 (stereo not drawn) | 500 nM
O=C(NCc1ccc(-n2cccc2)cc1)c1nc(Cn2ccc([N+](=O)[O-])n2)no1 | 2500 nM
COc1ccc(CNc2cc(C3CC3)nc(-c3nccn3C)n2)cc1 | 1000 nM
Cc1nc2c(-c3n[nH]c(-c4ccccc4N)n3)cccn2c1C | 4000 nM
CCn1c(-c2nonc2N)nc2c([C@@H](C)O)ncc(O[C@H](CN)c3ccccc3)c21 | 7900 nM
O=C(Nc1nc2ccccc2[nH]1)c1ccc2nc[nH]c2c1 | 25000 nM
O=C(Nc1nc2cc(Cl)ccc2o1)c1cccc(Cl)c1 | 790 nM
CN(C)CCN(C)Cc1ccc(Cl)cc1NS(=O)(=O)c1ccc(Cl)c(Cl)c1 | 1000 nM
Fc1ccccc1N1C[C@H]2CCN(c3cccnc3)C[C@H]2C1 | 200 nM
CC(c1ccc2c(c1)CCCC2)N(C)c1ncc2c(N)nc(N)nc2n1 (stereo not drawn) | 32 nM
Cn1cc(CN2CCN(c3ccc4c(c3)CCN(C(=O)[C@H]3C[C@@H]3c3ccccc3)CC4)CC2)cn1 | 1600 nM
CC(C)S(=O)(=O)c1ccc(-c2cnc(N)c3cc(-c4ccnc(N)n4)ccc23)cc1 | 790 nM
CS(=O)(=O)c1cccc(CNC(=O)c2cncc(N3CCN(c4ccc(F)cc4)CC3)c2)c1 | 630 nM
CC1CCCCN1C(=O)NCCc1coc(-c2ccc(F)cc2)n1 (stereo not drawn) | 400 nM
CCC(=O)Nc1ccc(-c2nc3ccc(Cl)cc3[nH]2)cc1 | 2000 nM
COc1ccccc1C1CC(c2ccc(NS(C)(=O)=O)cc2)=NN1C(=O)c1cccs1 (stereo not drawn) | 25000 nM
Cc1nccn1C1CCCN(C(=O)c2cc3c(F)cccc3s2)C1 (stereo not drawn) | 630 nM
Cc1ccc2ccc(C(Nc3ccccn3)c3cccnc3)c(O)c2n1 (stereo not drawn) | 500 nM

Structure (SMILES) | IC50
c1ccc(Nc2nc(-c3ccccn3)cc(N3CCOCC3)n2)cc1 | 2000 nM
Cc1cc(C#N)c([N+](=O)[O-])cc1Br | 200 nM
c1cncc(CN(Cc2ccco2)Cc2cn[nH]c2-c2cccs2)c1 | 20 nM
CC(C(=O)Nc1ccccc1F)N(C)CC(=O)Nc1cccc2ccccc12 (stereo not drawn) | 400 nM
NC(N)=Nc1nc(-c2ccc(NC(N)=NCCN3CCCC3)cc2)cs1 | > 50000 nM (inactive)
C[C@@H](Oc1cc(-n2cnc3ccc(CC(O)CO)cc32)sc1C(N)=O)c1ccccc1Cl (stereo partly drawn) | 3200 nM
COc1ccc(NS(=O)(=O)c2cc(NC(=O)Cc3ccc(C)cc3)ccc2N2CCOCC2)cc1 | 2000 nM
Cc1cc(Br)sc1CNCCCNc1cc(=O)c2ccccc2[nH]1 | 1600 nM
COc1cccc(C(=O)[C@H]2C[C@@H]2CN(Cc2ccccn2)Cc2ccccn2)c1 | 1300 nM
Fc1ccc(Nc2nc(-c3ccccn3)cs2)cc1 | 2500 nM
CCN(CC)c1ccc(S(=O)(=O)N(CC)CC)c2nonc12 | 25000 nM
CCn1c(NC(=O)Cc2ccc(F)cc2)nc2ccccc21 | 5000 nM
Cn1c(CN2CCN(c3ncc(C(F)(F)F)cc3Cl)CC2)nc2ccncc21 | 790 nM
CCCCCNC(=O)c1c[nH]c2ccc(S(=O)(=O)N(C)c3ccc(OCC)cc3)cc2c1=O | 32000 nM
COc1ccc(Cl)cc1CC(=O)Nc1n[nH]c(-c2ccccn2)n1 | 10000 nM
O=C(CN1CCC2(O)CCCCC2C1c1ccc2c(c1)OCO2)Nc1ccc(Cl)cc1Cl (stereo not drawn) | 13000 nM
Cc1cc(N(C)C)nc(Nc2ccccc2C)n1 | 1600 nM
O=C(CN(Cc1ccccn1)Cc1ccccn1)NCc1ccc2c(c1)OCO2 | 7900 nM
CNS(=O)(=O)c1ccccc1Nc1nc(Nc2cc(C)nn2C)ncc1Cl | 400 nM
O=[N+]([O-])c1ccc(-c2nnn(-c3ccc(Cl)cc3)n2)o1 | 250 nM

From PubChem BioAssay AID1159559 (GlaxoSmithKline (GSK), 2015)
